From PubChem BioAssay (NCI)
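Abbreviation: GI50, concentration required for 50% inhibition of growth. TGI: total growth inhibition.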

Columns and labels:
Assay in all cases: DTP human tumour cell line panel, 384-well format
[1] = test system: SNB-75 CNS
[2] = test system: BT-549 breast
[3] = test system: MDA-MB-468 breast
[4] = test system: ACHN renal
[5] = test system: SF-295 CNS
[6] = test system: MCF7 breast
[7] = test system: HL-60(TB) leukemia
[8] = test system: OVCAR-8 ovarian
[9] = test system: LOX IMVI melanoma
[10] = test system: A549 NSCLC
[11] = test system: HS 578T breast
[12] = test system: NCI-H226 lung
[13] = test system: OVCAR-3 ovarian
[14] = test system: HOP-92 NSCLC
[15] = test system: SK-OV-3 ovarian
[16] = test system: U251 glioblastoma
[17] = test system: RPMI-8226 leukemia
[18] = test system: HCT-15 colon
[19] = test system: A498 renal
[20] = test system: CAKI-1 renal
[21] = test system: OVCAR-4 ovarian
[22] = test system: SK-MEL-5 melanoma
[23] = test system: SNB-19 CNS
[24] = test system: MDA-MB-435 melanoma
[25] = test system: SF-539 CNS
[26] = test system: CCRF-CEM leukemia
[27] = test system: NCI-H522 lung
[28] = test system: SK-MEL-2 melanoma
[29] = test system: UACC-257 melanoma
[30] = test system: UACC-62 melanoma
[31] = test system: K-562 leukemia
[32] = test system: SW-620 colon
[33] = test system: NCI-H23 lung
[34] = test system: HCC-2998 colon
[35] = test system: DU-145 prostate
[36] = test system: MALME-3M melanoma
[37] = test system: SF-268 CNS
[38] = test system: HOP-62 NSCLC
[39] = test system: M14 melanoma
[40] = test system: HCT-116 colon
[41] = test system: COLO 205 colon
[42] = test system: SK-MEL-28 melanoma
[43] = test system: KM12 colon
[44] = test system: IGROV1 ovarian
[45] = test system: TK-10 renal
[46] = test system: SN12C renal
[47] = test system: NCI-H322M lung
[48] = test system: HT29 colon
[49] = test system: EKVX NSCLC
[50] = test system: RXF 393 renal
[51] = test system: PC-3 prostate
[52] = test system: NCI-H460 NSCLC
[53] = test system: 786-0 renal
[54] = test system: MOLT-4 leukemia
[55] = test system: NCI/ADR-RES ovarian

Nc1cc2c(cc1Cl)C(=O)c1ccccc1C2=O
GI50 [1]: 2.92 µM | TGI [1]: 7.13 µM | GI50 [2]: 2.67 µM | TGI [2]: 8.24 µM | GI50 [3]: 0.228 µM | TGI [3]: 9.07 µM | GI50 [4]: 2.47 µM | TGI [4]: 12.7 µM | GI50 [5]: 2.86 µM | TGI [5]: 9.19 µM | GI50 [6]: 11.1 µM | TGI [6]: 23.3 µM | GI50 [7]: > 100 µM | TGI [7]: > 100 µM | GI50 [8]: 4.16 µM | TGI [8]: 13.8 µM | GI50 [9]: 0.276 µM | TGI [9]: 16.4 µM | GI50 [10]: 6.15 µM | TGI [10]: 19.9 µM | GI50 [11]: 4.51 µM | TGI [11]: 15.8 µM | GI50 [12]: 1.86 µM | TGI [12]: 17 µM | GI50 [13]: 6.94 µM | TGI [13]: 20.4 µM | GI50 [14]: 3.85 µM | TGI [14]: 13.7 µM | GI50 [15]: 4.81 µM | TGI [15]: 18.4 µM | GI50 [16]: 3.21 µM | TGI [16]: 11 µM | GI50 [17]: 3.13 µM | TGI [17]: 12 µM | GI50 [18]: 15 µM | TGI [18]: 32.3 µM | GI50 [19]: 2.18 µM | TGI [19]: 5.32 µM | GI50 [20]: 13.2 µM | TGI [20]: 26.3 µM | GI50 [21]: 1.1 µM | TGI [21]: 9.47 µM | GI50 [22]: 3.59 µM | TGI [22]: 50.6 µM | GI50 [23]: 3.59 µM | TGI [23]: 12.8 µM | GI50 [24]: 19.9 µM | TGI [24]: 44.3 µM | GI50 [25]: 1.66 µM | TGI [25]: 3.06 µM | GI50 [26]: 71 µM | TGI [26]: > 100 µM | GI50 [27]: 10.2 µM | TGI [27]: 21.9 µM | GI50 [28]: 2.56 µM | TGI [28]: 7.19 µM | GI50 [29]: 17.6 µM | TGI [29]: 52 µM | GI50 [30]: 7.21 µM | TGI [30]: 20.9 µM | GI50 [31]: 24.9 µM | TGI [31]: 74.7 µM | GI50 [32]: 11.8 µM | TGI [32]: 25.1 µM | GI50 [33]: 2.65 µM | TGI [33]: 11.3 µM | GI50 [34]: 11 µM | TGI [34]: > 100 µM | GI50 [35]: 14.3 µM | TGI [35]: 29 µM | GI50 [36]: 17.2 µM | TGI [36]: 47.8 µM | GI50 [37]: 11.6 µM | TGI [37]: 24 µM | GI50 [38]: 2.34 µM | TGI [38]: 4.24 µM | GI50 [39]: 14.2 µM | TGI [39]: 30.4 µM | GI50 [40]: 3.1 µM | TGI [40]: 12.3 µM | GI50 [41]: 10.4 µM | TGI [41]: 22.6 µM | GI50 [42]: 17.8 µM | TGI [42]: 42.2 µM | GI50 [43]: 11.1 µM | TGI [43]: 24 µM | GI50 [44]: 1.33 µM | TGI [44]: 17.9 µM | GI50 [45]: 2.63 µM | TGI [45]: 12.9 µM | GI50 [46]: 4.44 µM | TGI [46]: 16.9 µM | GI50 [47]: 6.15 µM | TGI [47]: 24 µM | GI50 [48]: 26 µM | TGI [48]: > 100 µM | GI50 [49]: 6.17 µM | TGI [49]: 20.6 µM | GI50 [50]: 4.01 µM | TGI [50]: 15 µM | GI50 [51]: 10.1 µM | TGI [51]: 22 µM | GI50 [52]: 3.76 µM | TGI [52]: 13.9 µM | GI50 [53]: 2.35 µM | TGI [53]: 8.08 µM | GI50 [54]: 23.8 µM | TGI [54]: 83.7 µM | GI50 [55]: 4.35 µM | TGI [55]: 17.5 µM
